Values of other authors in US12433860B2, “Treatment of multiple sclerosis comprising DHODH inhibitors” (Immunic AG, priority 2021, dated 2025).

Test system: patients with active rheumatoid arthritis
Conditions: 35 mg once-daily for 13 weeks; cited from earlier work

## COc1cccc(-c2ccc(NC(=O)C3=C(C(=O)O)CCC3)c(F)c2)c1 [vidofludimus, 2-((3-fluoro-3′-methoxy-[1,1′-biphenyl]-4-yl)carbamoyl)cyclopent-1-enecarboxylic acid]
  diarrhoea, alopecia, neutropenia or liver enzyme elevations: no notable increases
  safety profile as compared to placebo: overall similar safety profile as compared to placebo
